Experimental data from PMC6930524, “A Prospective Repurposing of Dantrolene as a Multitarget Agent for Alzheimer’s Disease” (Molecules, 2019).

Tests used:
human MAO B (hMAO B) = target: T1, human MAO B (hMAO B) (Homo sapiens, UniProt P27338); experiment: biochemical
T1 construct: purchased Sigma-Aldrich Europe (Milan, Italy); host or cells: baculovirus infected insect cells (microsomes)
T1 sequence (P27338 1-520): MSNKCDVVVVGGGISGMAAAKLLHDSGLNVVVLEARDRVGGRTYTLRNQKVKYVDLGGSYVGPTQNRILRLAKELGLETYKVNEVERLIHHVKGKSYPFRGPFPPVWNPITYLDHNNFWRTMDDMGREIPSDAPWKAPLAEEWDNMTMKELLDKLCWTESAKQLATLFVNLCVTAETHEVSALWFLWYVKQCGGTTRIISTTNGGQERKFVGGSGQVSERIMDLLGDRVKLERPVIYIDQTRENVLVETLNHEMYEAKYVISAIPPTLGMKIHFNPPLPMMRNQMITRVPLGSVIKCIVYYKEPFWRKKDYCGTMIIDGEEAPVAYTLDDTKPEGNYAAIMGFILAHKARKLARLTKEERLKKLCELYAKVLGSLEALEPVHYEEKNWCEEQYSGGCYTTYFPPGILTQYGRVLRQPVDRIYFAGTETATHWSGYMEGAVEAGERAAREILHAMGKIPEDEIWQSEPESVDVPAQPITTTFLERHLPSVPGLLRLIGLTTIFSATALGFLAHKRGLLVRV
Text: Routine kynuramine fluorescence [29] and Ellman’s spectrophotometric [30, 31] assays were used for in vitro inhibition of human MAO B (hMAO B) and acetylcholinesterase (hAChE), respectively. Selectivity over the corresponding isoforms hMAO A and butyrylcholinesterase (hBChE) was also verified.
(§1) An already published protocol using human recombinant monoamine oxidases A (250 U/mg) and B (59 U/mg; microsomes from baculovirus infected insect cells) [29] was used by applying a 96-well plate technique (instrument Infinite M1000 Pro, Tecan, Cernusco s.N., Italy). Briefly, compounds at a concentration ranging from 30 to 0.01 μM were preincubated 20 min at 37 °C with substrate kynuramine, in phosphate buffer 8.0 made 0.39 osmolar with KCl. After addition of enzyme and further 30 min of incubation, NaOH was added and the fluorescence read at 310/400 excitation/emission wavelength. Experiments were performed in duplicates in black, flat-bottomed polystyrene 96-well microtiter plates (Greiner Bio-One GmbH, Frickenhausen, Germany). […] Inhibition values and kinetics were calculated by means of Prism (GraphPad Prism version 5.00 for Windows, GraphPad Software, San Diego, CA, USA).

[1] = target: T2, Tau hexapeptide (306)VQIVYK(311) (PHF6) (Homo sapiens, UniProt P10636); experiment: Inhibition of PHF6 self-aggregation (ThT fluorescence, TFE cosolvent); format: biochemical; conditions: inhibitor 25 μM, PHF6 50 μM
T2 construct: Tau hexapeptide (306)VQIVYK(311) (PHF6); purchased JPT Peptide Technologies GmbH, Berlin, Germany; host or cells: synthetic peptide
Text: As an additional proof of the potential of DAN in interfering with AD-related processes, we investigated the effects on the in vitro self-aggregation of beta amyloid peptide 1–40 (Aβ40) and Tau hexapeptide (306)VQIVYK(311) (PHF6). Aβ40 is used as an in vitro probe of the fibrillization process leading to amyloid fibrils and ultimately to senile plaques in AD [32], while PHF6 represents the highly proaggregating sequence of the repeated domain R3 of Tau protein, responsible of the formation of neurofibrillary tangles and other tauopathies in NDs. […]
Highly aggregating hexapeptide Ac-VQIVYK-NH2 (trifluoroacetate salt; JPT Peptide Technologies GmbH, Berlin, Germany) was used as mimic of tau fibrillization in vitro. […] Incubation samples were prepared in black low-binding, flat-bottomed polystyrene 96-well microtiter plates, containing PHF6 (final conc. 50 μM), inhibitor (25 μM) and ThT (10 μM) in a final volume of 180 μL, and immediately read with Tecan Infinite M1000 Pro instrument. Samples were set in triplicate and their fluorescence values subtracted of the blank. […] Fluorescence was measured at 440/485 excitation/emission wavelength within 2 h at 25 °C. Endpoint fluorescence values (arbitrary fluorescence units, AFU) were used for the calculation of residual aggregation as in Equation (1): % residual aggregation = 100 × AFUsample/AFUcontrol(1)

hMAO A = target: T3, hMAO A (Homo sapiens, UniProt P21397); experiment: biochemical
T3 sequence (P21397 1-527): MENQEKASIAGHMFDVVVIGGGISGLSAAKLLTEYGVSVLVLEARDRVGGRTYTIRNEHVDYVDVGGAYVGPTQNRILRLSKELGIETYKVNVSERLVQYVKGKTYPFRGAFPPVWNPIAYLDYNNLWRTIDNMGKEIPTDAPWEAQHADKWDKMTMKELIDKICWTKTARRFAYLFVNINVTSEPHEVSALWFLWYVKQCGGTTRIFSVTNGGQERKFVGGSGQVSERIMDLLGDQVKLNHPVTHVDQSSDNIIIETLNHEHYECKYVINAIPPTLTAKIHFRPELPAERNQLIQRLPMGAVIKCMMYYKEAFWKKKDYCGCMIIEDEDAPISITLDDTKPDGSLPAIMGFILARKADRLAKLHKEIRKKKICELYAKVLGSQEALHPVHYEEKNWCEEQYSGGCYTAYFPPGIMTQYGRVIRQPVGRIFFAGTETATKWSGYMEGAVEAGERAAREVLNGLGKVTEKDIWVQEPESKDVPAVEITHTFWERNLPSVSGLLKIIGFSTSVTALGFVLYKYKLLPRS
Protocol: Selectivity over the corresponding isoforms hMAO A and butyrylcholinesterase (hBChE) was also verified.
as §1

O=C1CN(/N=C/c2ccc(-c3ccc([N+](=O)[O-])cc3)o2)C(O)=N1 [Dantrolene]
IC50 (human MAO B (hMAO B)): 2690 ± 440 nM | hMAO B inhibition mechanism (human MAO B (hMAO B); Michaelis–Menten / Lineweaver–Burk, substrate kynuramine): comp. | Ki (human MAO B (hMAO B); substrate kynuramine, mean ± SEM): 960 ± 90 nM | inhibition at 25 µM [1]: 32% | IC50 (hMAO A): 14000 ± 1000 nM
